Laboratory results from US7897602B2, “Indolinone compounds as kinase inhibitors” (Development Center for Biotechnology, priority 2009, dated 2011).

What was measured:
Format in all cases: biochemical
Flt3 kinase = target: T1, Flt3 kinase (Homo sapiens, UniProt P36888); assay: Flt3 kinase assay (33P incorporation into Poly(Glu-Tyr)); conditions: 100 nM test compound; read-out: Inhibition at 100 nM (%) Flt-3
T1 construct: recombinant N-terminal 6×His-tagged Flt3 kinase domain construct expressed from baculovirus; 6xHis (N); made in house
T1 sequence (P36888 610-943 limits assumed): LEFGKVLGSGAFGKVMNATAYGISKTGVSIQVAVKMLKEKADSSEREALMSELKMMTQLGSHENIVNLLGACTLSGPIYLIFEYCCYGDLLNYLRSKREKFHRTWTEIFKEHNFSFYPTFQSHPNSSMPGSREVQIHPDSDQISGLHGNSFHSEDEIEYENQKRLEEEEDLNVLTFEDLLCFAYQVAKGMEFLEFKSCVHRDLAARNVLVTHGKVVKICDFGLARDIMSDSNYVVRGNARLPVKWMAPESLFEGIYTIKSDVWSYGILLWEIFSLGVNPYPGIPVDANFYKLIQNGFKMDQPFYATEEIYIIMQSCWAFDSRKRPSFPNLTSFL
Description: Inhibition of Flt3 kinase activity by compounds disclosed herein was quantified by measuring the amount of [^33P] incorporated into the substrate in the presence of a test compound. Briefly, a reaction mixture of 25 μL final volume containing 5 ng of Flt3 kinase (obtained by purifying recombinant N-terminal 6×His-tagged Flt3 kinase domain construct expressed from baculovirus), 5 μg of the substrate (Poly (Glu-Tyr, 4:1, Sigma)), kinase reaction buffer (20 mM MOPS pH 7.0, 1 mM EDTA, 5% glycerol, 0.01% Brij-35, 0.1% β-mercaptoethanol, 1 mg/mL BSA, 100 μM ATP, 0.1 μCi per well [^33P]-γ-ATP (2,500-3,000 Ci/mmol)), and a test compound (100 nM, diluted with 4% DMSO) or DMSO (as the control) was incubated at 30° C. for 30 minutes. The reaction was stopped by adding 5 μL of 3% phosphoric acid solution. The resultant reaction solution was then harvested onto a filter plate (UniFilter-96 GF/B, PerkinElmer), washed 20 times for 5 min with d.d. H2O, and followed by the addition of 30 μL of MicroScint™-20 Cocktail (PerkinElmer). The plate was then sealed and counted using a TopCount scintillation detector (PerkinElmer). The percentage of inhibition rate of the test compound was calculated by dividing the retained radioactivity of the test sample with the retained radioactivity of the control sample and shown in Table 3.

Aurora B kinase = target: T2, Aurora B kinase (Homo sapiens, UniProt Q96GD4); assay: Aurora B kinase assay ([γ-33P]ATP, CHOCKtide substrate); conditions: for inhibition at 1 µM: 1.0 μM test compound
T2 construct: purchased Cell signaling
In short: (§1)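 Radiometric filter-binding format: 33P incorporation into CHOCKtide counted after acid stop and filtration. Reactions ran 30 min at 33 °C, Aurora A with 10 μM ATP, Aurora B with 40 μM ATP. IC50 taken as concentration giving half-maximal kinase inhibition.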

VEGFR2 kinase = target: T3, VEGFR2 kinase (Homo sapiens, UniProt P35968); assay: VEGFR2 kinase assay (33P incorporation into Poly(Glu-Tyr)); conditions: 500 nM test compound; read-out: Inhibition at 500 nM (%) VEGFr-2
T3 construct: recombinant N-terminal 6×His-tagged VEGFR2 kinase domain construct expressed by baculovirus; 6xHis (N); made in house
Description: Inhibition of VEGFR2 kinase activity by compounds disclosed herein was quantified by measuring the amount of [^33P] incorporated into the substrate in the presence of a test compound. Specifically, a reaction mixture with a final volume of 25 μL and containing 6.25 ng of VEGFR2 kinase (obtained by purifying recombinant N-terminal 6×His-tagged VEGFR2 kinase domain construct expressed by baculovirus), 5 μg of substrate (Poly (Glu-Tyr, 4:1, Sigma)), kinase reaction buffer (20 mM MOPS pH 7.0, 1 mM EDTA, 5% glycerol, 0.01% Brij-35, 0.1% β-mercaptoethanol, 1 mg/mL BSA, 100 μM ATP, 0.1 μCi per well [^33P]-γ-ATP (2,500-3,000 Ci/mmol), and 500 nM test compound (final concentration of DMSO was 4%) or 4% DMSO alone (as the control sample), was incubated at 30° C. for 30 minutes. The reaction was then stopped by adding 5 μL of 3% phosphoric acid solution. The resultant solution was transferred to and harvested by a filter plate (UniFilter-96 GF/B, PerkinElmer). The filter plate was then washed 20 times with d.d. H2O for 5 min followed by the addition of 30 μL of MicroScint™-20 Cocktail (PerkinElmer). After the plate was sealed, the retained radioactivity on the filter was counted using a TopCount scintillation detector (PerkinElmer). The percentage of inhibition rate of the test compound was calculated by dividing the retained radioactivity of the test sample with the retained radioactivity of the control sample and shown in Table 3.

Aurora A kinase = target: T4, Aurora A kinase (Homo sapiens, UniProt O14965); assay: Aurora A kinase assay ([γ-33P]ATP, CHOCKtide substrate); conditions: for inhibition at 1 µM: 1.0 μM test compound
T4 construct: purchased Upstate
T4 sequence (O14965 1-403): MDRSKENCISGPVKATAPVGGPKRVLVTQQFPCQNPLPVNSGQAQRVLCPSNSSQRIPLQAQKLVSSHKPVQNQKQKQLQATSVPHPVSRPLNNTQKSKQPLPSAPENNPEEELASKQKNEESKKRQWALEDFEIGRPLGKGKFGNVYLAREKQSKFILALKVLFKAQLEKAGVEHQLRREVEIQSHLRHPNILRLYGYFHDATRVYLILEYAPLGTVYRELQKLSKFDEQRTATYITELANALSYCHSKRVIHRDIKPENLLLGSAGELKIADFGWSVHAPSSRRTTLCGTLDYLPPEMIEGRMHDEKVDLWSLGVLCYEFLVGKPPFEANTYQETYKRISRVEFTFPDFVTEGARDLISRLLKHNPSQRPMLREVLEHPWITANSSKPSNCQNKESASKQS
In short: as §1

T3 sequence (P35968 834-1162 limits assumed): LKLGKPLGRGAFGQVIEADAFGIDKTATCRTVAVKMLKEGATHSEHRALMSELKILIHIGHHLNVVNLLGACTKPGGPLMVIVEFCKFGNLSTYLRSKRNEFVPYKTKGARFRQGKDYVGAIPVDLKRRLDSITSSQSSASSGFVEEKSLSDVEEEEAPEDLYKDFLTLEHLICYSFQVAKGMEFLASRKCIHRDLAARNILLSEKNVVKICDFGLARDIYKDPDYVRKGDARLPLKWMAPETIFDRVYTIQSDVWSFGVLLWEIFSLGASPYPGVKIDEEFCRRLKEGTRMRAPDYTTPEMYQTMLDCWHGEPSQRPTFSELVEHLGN
T2 sequence (Q96GD4 whole entry): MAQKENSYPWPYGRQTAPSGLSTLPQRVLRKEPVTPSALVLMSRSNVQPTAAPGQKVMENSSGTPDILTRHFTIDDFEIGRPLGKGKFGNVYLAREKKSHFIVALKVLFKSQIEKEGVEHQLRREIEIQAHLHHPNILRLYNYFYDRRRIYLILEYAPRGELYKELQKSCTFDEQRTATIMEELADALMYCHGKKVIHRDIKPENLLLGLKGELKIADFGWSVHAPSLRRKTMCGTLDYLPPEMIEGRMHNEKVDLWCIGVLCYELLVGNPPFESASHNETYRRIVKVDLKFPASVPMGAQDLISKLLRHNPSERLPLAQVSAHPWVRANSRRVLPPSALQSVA

| Compound | inhibition at 0.1 µM (Flt3 kinase) [%] | inhibition at 1 µM (Aurora B kinase) [%] | inhibition at 0.5 µM (VEGFR2 kinase) [%] | inhibition at 1 µM (Aurora A kinase) [%] | IC50 (Aurora A kinase) [nM] | IC50 (Aurora B kinase) [nM] |
| --- | --- | --- | --- | --- | --- | --- |
| CCOC(=O)CCc1c(/C=C2\C(=O)Nc3ccc(-c4cc5ccccc5s4)cc32)[nH]c2c1C(=O)CCC2 [DCB-70069, (Z)-5-(benzo[b]thiophen-2-yl)-3-((3-(3-ethoxy-3-oxopropyl)-4-oxo-4,5,6,7-tetrahydro-1H-indol-2-yl)methylene)indolin-2-one] | 9.6 | -2.6 | 11.4 | 16.5 |  |  |
| CCOC(=O)CCc1c(/C=C2\C(=O)Nc3ccc(NC(=O)c4ccc(F)cc4)cc32)[nH]c2c1C(=O)CCC2 [DCB-70074, (Z)-5-(4-fluorobenzamido)-3-((3-(3-ethoxy-3-oxopropyl)-4-oxo-4,5,6,7-tetrahydro-1H-indol-2-yl)methylene)indolin-2-one] | -1.3 | 15.1 | 25 | 19.3 |  |  |
| O=C(O)CCc1c(/C=C2\C(=O)Nc3cc(-c4ccc(O)cc4)ccc32)[nH]c2c1C(=O)CCC2 [DCB-70075, (Z)-6-(4-hydroxyphenyl)-3-((3-carboxyethyl-4-oxo-4,5,6,7-tetrahydro-1H-indol-2-yl)methylene)indolin-2-one] | 63.5 | 55.8 | 99.6 | 92.4 | 86.3 | 456 |
| O=C(O)CCc1c(/C=C2\C(=O)Nc3ccc(NC(=O)c4ccc(F)cc4)cc32)[nH]c2c1C(=O)CCC2 [DCB-70076, (Z)-5-(4-fluorobenzamido)-3-((3-carboxyethyl-4-oxo-4,5,6,7-tetrahydro-1H-indol-2-yl)methylene)indolin-2-one] | -3.1 | 7.4 | 59.8 | 40.7 |  |  |
| CCOC(=O)CCc1c(/C=C2\C(=O)Nc3cc(-c4ccc(O)c(O)c4)ccc32)[nH]c2c1C(=O)CCC2 [DCB-70077, (Z)-6-(3,4-dihydroxyphenyl)-3-((3-(3-ethoxy-3-oxopropyl)-4-oxo-4,5,6,7-tetrahydro-1H-indol-2-yl)methylene)indolin-2-one] | 58.4 | 47.5 | 89.7 | 57 |  |  |
| O=C(O)CCc1c(/C=C2\C(=O)Nc3cc(-c4ccc(O)c(O)c4)ccc32)[nH]c2c1C(=O)CCC2 [DCB-70078, (Z)-6-(3,4-dihydroxyphenyl)-3-((3-carboxyethyl-4-oxo-4,5,6,7-tetrahydro-1H-indol-2-yl)methylene)indolin-2-one] | 75 | 63.4 | 98.9 | 91.6 | 46.1 | 438 |
| CCOC(=O)CCc1c(/C=C2\C(=O)Nc3cc(-c4cc5ccccc5s4)ccc32)[nH]c2c1C(=O)CCC2 [DCB-70079, (Z)-6-(benzo[b]thiophen-2-yl)-3-((3-(3-ethoxy-3-oxopropyl)-4-oxo-4,5,6,7-tetrahydro-1H-indol-2-yl)methylene)indolin-2-one] | 1.1 | 16 | 15.6 | 8.8 |  |  |
| O=C(O)CCc1c(/C=C2\C(=O)Nc3cc(-c4cc5ccccc5s4)ccc32)[nH]c2c1C(=O)CCC2 [DCB-70080, (Z)-6-(benzo[b]thiophen-2-yl)-3-((3-carboxyethyl-4-oxo-4,5,6,7-tetrahydro-1H-indol-2-yl)methylene)indolin-2-one] | 7.4 | 35.2 | 76.9 | 40.3 |  |  |
| CCOC(=O)CCc1c(/C=C2\C(=O)Nc3cc(-c4ccc(O)c(OC)c4)ccc32)[nH]c2c1C(=O)CCC2 [DCB-70081, (Z)-6-(4-hydroxy-3-methoxyphenyl)-3-((3-(3-ethoxy-3-oxopropyl)-4-oxo-4,5,6,7-tetrahydro-1H-indol-2-yl)methylene)indolin-2-one] | 30 | 30.6 | 80 | 27.7 |  |  |
| COc1cc(-c2ccc3c(c2)NC(=O)/C3=C\c2[nH]c3c(c2CCC(=O)O)C(=O)CCC3)ccc1O [DCB-70082, (Z)-6-(4-hydroxy-3-methoxyphenyl)-3-((3-carboxyethyl-4-oxo-4,5,6,7-tetrahydro-1H-indol-2-yl)methylene)indolin-2-one] | 35.1 | 47.1 | 95.8 | 81.7 | 224 | 2240 |

Second part, the molecule after the results:

| inhibition at 0.1 µM (Flt3 kinase) [%] | inhibition at 1 µM (Aurora B kinase) [%] | inhibition at 0.5 µM (VEGFR2 kinase) [%] | inhibition at 1 µM (Aurora A kinase) [%] | IC50 (Aurora A kinase) [nM] | IC50 (Aurora B kinase) [nM] | Compound |
| --- | --- | --- | --- | --- | --- | --- |
| 13.3 | -2.7 | 45.5 | 31.4 |  |  | O=C(O)CCc1c(/C=C2\C(=O)Nc3ccc(-c4cc5ccccc5s4)cc32)[nH]c2c1C(=O)CCC2 [DCB-70070, (Z)-5-(benzo[b]thiophen-2-yl)-3-((3-carboxyethyl-4-oxo-4,5,6,7-tetrahydro-1H-indol-2-yl)methylene)indolin-2-one] |
| 21.2 | 11.2 | 91.8 | 82.1 | 270 |  | O=C(O)CCc1c(/C=C2\C(=O)Nc3ccc(S(=O)(=O)Cc4ccccc4)cc32)[nH]c2c1C(=O)CCC2 [DCB-70071, (Z)-5-benzylsulfonyl-3-((3-carboxyethyl-4-oxo-4,5,6,7-tetrahydro-1H-indol-2-yl)methylene)indolin-2-one] |
| -2.1 | 15.5 | 86 | 71.1 | 443 |  | O=C(O)CCc1c(/C=C2\C(=O)Nc3ccc(S(=O)(=O)Cc4ccc(F)cc4)cc32)[nH]c2c1C(=O)CCC2 [DCB-70072, (Z)-5-(4-fluorobenzylsulfonyl)-3-((3-carboxyethyl-4-oxo-4,5,6,7-tetrahydro-1H-indol-2-yl)methylene)indolin-2-one] |
| 1.4 | 9.4 | 71.3 | 65.5 |  |  | O=C(O)CCc1c(/C=C2\C(=O)Nc3ccc(S(=O)(=O)Cc4c(Cl)cccc4Cl)cc32)[nH]c2c1C(=O)CCC2 [DCB-70073, (Z)-5-(2,6-dichlorobenzylsulfonyl)-3-((3-carboxyethyl-4-oxo-4,5,6,7-tetrahydro-1H-indol-2-yl)methylene)indolin-2-one] |
